Experimental data reported in ChEMBL document CHEMBL5154807, “Design and development of photoswitchable DFG-Out RET kinase inhibitors” (Eur J Med Chem, 2022).

How the values were obtained:
[1] = Thermal stability of compound in water assessed as half-life; assay type: physicochemical
[2] = biological target: T1, Proto-oncogene tyrosine-protein kinase receptor Ret (Homo sapiens, UniProt P07949); assay: Inhibition of human RET kinase using IGF1Rtide as substrate incubated for 40 mins and measured by ADP-Glo assay
T1 sequence (P07949 whole entry): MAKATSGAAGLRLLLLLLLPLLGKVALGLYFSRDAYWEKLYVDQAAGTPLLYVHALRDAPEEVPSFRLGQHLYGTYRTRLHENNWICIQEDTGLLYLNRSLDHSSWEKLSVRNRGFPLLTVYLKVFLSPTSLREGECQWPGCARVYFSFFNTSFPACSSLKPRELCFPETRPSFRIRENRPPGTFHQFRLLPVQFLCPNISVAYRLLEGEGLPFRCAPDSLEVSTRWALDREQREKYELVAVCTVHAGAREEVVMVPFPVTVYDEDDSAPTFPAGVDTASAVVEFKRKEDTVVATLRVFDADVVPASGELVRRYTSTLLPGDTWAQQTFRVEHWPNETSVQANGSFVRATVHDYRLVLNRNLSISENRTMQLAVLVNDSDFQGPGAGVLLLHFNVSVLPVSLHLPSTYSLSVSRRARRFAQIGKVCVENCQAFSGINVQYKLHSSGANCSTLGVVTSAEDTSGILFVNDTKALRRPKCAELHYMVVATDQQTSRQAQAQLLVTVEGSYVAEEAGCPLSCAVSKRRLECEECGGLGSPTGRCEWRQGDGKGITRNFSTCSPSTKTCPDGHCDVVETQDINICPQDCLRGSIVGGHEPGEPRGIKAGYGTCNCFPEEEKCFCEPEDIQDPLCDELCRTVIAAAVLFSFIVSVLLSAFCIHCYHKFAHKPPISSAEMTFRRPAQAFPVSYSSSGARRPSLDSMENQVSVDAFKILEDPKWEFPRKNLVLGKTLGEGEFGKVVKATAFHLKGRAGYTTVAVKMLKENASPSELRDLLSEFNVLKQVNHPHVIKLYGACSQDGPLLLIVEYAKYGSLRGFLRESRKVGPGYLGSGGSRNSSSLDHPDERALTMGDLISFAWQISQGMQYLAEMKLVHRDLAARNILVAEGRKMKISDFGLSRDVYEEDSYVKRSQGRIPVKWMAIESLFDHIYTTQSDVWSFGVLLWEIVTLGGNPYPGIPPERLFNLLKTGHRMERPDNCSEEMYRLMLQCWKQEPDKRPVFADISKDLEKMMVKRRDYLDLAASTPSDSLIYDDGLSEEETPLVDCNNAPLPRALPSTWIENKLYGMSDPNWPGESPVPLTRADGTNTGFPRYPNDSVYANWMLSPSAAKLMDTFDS

[3] = Drug degradation in 10 mM GSH after 20 hrs measured by LC-MS analysis; assay type: ADME; settings: 10000 µM
[4] = Thermal stability of compound in DMSO assessed as half-life; assay type: physicochemical
[5] = biological target: T1, Proto-oncogene tyrosine-protein kinase receptor Ret; assay: Inhibition of full-length RET kinase expressed in human HEK293 cells and measured by NanoBRET assay; assay type: cell-based

Compound	IC50 [2] [nM]	further results
CN1CCN(Cc2ccc(NC(=O)c3cccc(/C=C/c4cnc5ccccc5c4Nc4ccccc4)c3)cc2C(F)(F)F)CC1	2300	–
Cc1cccc2cc(/C=C\c3cccc(C(=O)Nc4ccc(CN5CCN(C)CC5)c(C(F)(F)F)c4)c3)cnc12	12600	–
CN1CCN(Cc2ccc(NC(=O)c3cccc(/C=C\c4cnc5ccccc5c4N(C)C)c3)cc2C(F)(F)F)CC1	2400	–
CCc1cccc2cc(/C=C/c3cccc(C(=O)Nc4ccc(CN5CCN(C)CC5)c(C(F)(F)F)c4)c3)cnc12	1700	–
CN1CCN(Cc2ccc(NC(=O)c3cccc(/C=C\c4cnc5ccccc5c4N4CCCC4)c3)cc2C(F)(F)F)CC1	2200	–
CCCc1cccc2cc(/C=C\c3cccc(C(=O)Nc4ccc(CN5CCN(C)CC5)c(C(F)(F)F)c4)c3)cnc12	> 500000	–
CCCc1cccc2cc(/C=C/c3cccc(C(=O)Nc4ccc(CN5CCN(C)CC5)c(C(F)(F)F)c4)c3)cnc12	5600	–
COc1c(/C=C\c2cccc(C(=O)Nc3ccc(CN4CCN(C)CC4)c(C(F)(F)F)c3)c2)cnc2ccccc12	1800	–
CCc1cccc2cc(/C=C\c3cccc(C(=O)Nc4ccc(CN5CCN(C)CC5)c(C(F)(F)F)c4)c3)cnc12	25000	–
CN1CCN(Cc2ccc(NC(=O)c3cccc(/N=N/c4cnc5[nH]ccc5c4)c3)cc2C(F)(F)F)CC1	3	Stability [3]: Stable; half-life [1]: 26.2 days; half-life [4]: 15.7 days
CN1CCN(Cc2ccc(NC(=O)c3cccc(/C=C\c4cnc5ccccc5c4Nc4ccccc4)c3)cc2C(F)(F)F)CC1	49000	–
CC(C)c1cccc2cc(/C=C/c3cccc(C(=O)Nc4ccc(CN5CCN(C)CC5)c(C(F)(F)F)c4)c3)cnc12	9800	–
CC(C)c1cccc2cc(/C=C\c3cccc(C(=O)Nc4ccc(CN5CCN(C)CC5)c(C(F)(F)F)c4)c3)cnc12	> 500000	–

The remaining molecules from weak to strong by IC50 [2], led by results:

IC50 [2] [nM]	Compound	further results
900	CN1CCN(Cc2ccc(NC(=O)c3cccc(/C=C\c4cnc5ccccc5c4)c3)cc2C(F)(F)F)CC1	–
363	COc1c(/N=N\c2cccc(C(=O)Nc3ccc(CN4CCN(C)CC4)c(C(F)(F)F)c3)c2)cnc2ccccc12	IC50 [5]: 3890 nM
257	Cc1cccc2cc(/C=C/c3cccc(C(=O)Nc4ccc(CN5CCN(C)CC5)c(C(F)(F)F)c4)c3)cnc12	–
98	CN1CCN(Cc2ccc(NC(=O)c3cccc(/C=C/c4cnc5ccccc5c4N(C)C)c3)cc2C(F)(F)F)CC1	–
66	CN1CCN(Cc2ccc(NC(=O)c3cccc(/C=C/c4cnc5ccccc5c4N4CCCC4)c3)cc2C(F)(F)F)CC1	–
24	COc1c(/N=N/c2cccc(C(=O)Nc3ccc(CN4CCN(C)CC4)c(C(F)(F)F)c3)c2)cnc2ccccc12	IC50 [5]: 920 nM; half-life [1]: 16.8 days; half-life [4]: 12.6 days
17	CN1CCN(Cc2ccc(NC(=O)c3ccc(F)c(/N=N\c4cnc5ccccc5c4)c3F)cc2C(F)(F)F)CC1	half-life [1]: 1.58 days
15	CN1CCN(Cc2ccc(NC(=O)c3cccc(/N=N\c4cnc5ccccc5c4)c3)cc2C(F)(F)F)CC1	–
12.4	COc1c(/C=C/c2cccc(C(=O)Nc3ccc(CN4CCN(C)CC4)c(C(F)(F)F)c3)c2)cnc2ccccc12	–
11	CN1CCN(Cc2ccc(NC(=O)c3ccc(F)c(/N=N/c4cnc5ccccc5c4)c3F)cc2C(F)(F)F)CC1	Stability [3]: Stable; half-life [1]: 1.58 days; half-life [4]: 32.5 days
9.5	CN1CCN(Cc2ccc(NC(=O)c3cccc(/N=N/c4cnc5ccccc5c4)c3)cc2C(F)(F)F)CC1	Stability [3]: Stable; half-life [1]: 9.04 days; half-life [4]: 8.67 days
7.8	CN1CCN(Cc2ccc(NC(=O)c3cccc(/C=C/c4cnc5ccccc5c4)c3)cc2C(F)(F)F)CC1	–
1.3	CC(C)n1nc(-c2ccc(NC(=O)Nc3cc(C(F)(F)F)ccc3F)cc2)c2c(N)ncnc21	–
